The source of these data is patent publication US9029376B2, “Small molecule inhibitors for the treatment or prevention of dengue virus infection” (Siga Technologies, Inc., priority 2008, dated 2015).

A word on the pEC50: it is the EC50 on a negative log10 scale, so that one unit is a factor of ten.

pEC50: −log10 of the molar value.

The first test deals with Dengue-2 (Strain New Guinea C). Put plainly: Dengue-2 viral yield assay in Vero cells. It counts as cell-based. The note with it: Dengue virus, Vero, 48 h, read-out: Activity (anti-dengue 2 viral activity, EC50). The protocol:
Compounds that were active in the primary screen were tested for activity in viral yield assays. […] Vero cells in 12-well plates were infected with dengue-2 virus at a multiplicity of infection (MOI) of 0.1, treated with compound (or DMSO as a control), incubated at 37° C., harvested 48 hours post infection and titered on Vero cells as described above. The EC50 was calculated through ExcelFit. Those compounds with activity below 1 μM are indicated with “A”, those with activity between 1 and 10 μM are indicated with “B”, and those with activity between 10 and 25 μM with “C”.
Regarding `COc1ccccc1C(=O)Nc1ccc2nc(SCC(=O)N3CCOCC3)sc2c1` [Compound 28, 2-Methoxy-N-[2-(2-morpholin-4-yl-2-oxo-ethylsulfanyl)-benzothiazol-6-yl]-benzamide], the pEC50 was less than 4.60.

Regarding `O=C(CSc1nnc(CSc2nc3ccccc3s2)o1)NC1CCCCC1` [Compound 53, 2-[5-(Benzothiazol-2-ylsulfanylmethyl)-[1,3,4]oxadiazol-2-ylsulfanyl]-N-cyclohexyl-acetamide], the pEC50 was less than 4.60.

Consider `NC(=O)C1(N2CCCCC2)CCN(C(=O)CSc2nc3ccccc3[nH]2)CC1` [Compound 70, 1′-[2-(1H-Benzoimidazol-2-ylsulfanyl)-acetyl]-[1,4′]bipiperidinyl-4′-carboxylic acid amide], for which the pEC50 was less than 4.60.

As to `O=C(CSc1nc2ccccc2s1)N1CCCCC1` [Compound 41, 2-(Benzothiazol-2-ylsulfanyl)-1-piperidin-1-yl-ethanone], the pEC50 was less than 4.60.

As to `Nc1ccc2nc(SCC(=O)N3CCOCC3)sc2c1` [Compound 16, 2-(6-Amino-benzothiazol-2-ylsulfanyl)-1-morpholin-4-yl-ethanone], the pEC50 was less than 4.60.

For the compound `CC1CCN(C(=O)CSc2nc3ccccc3[nH]2)CC1` [Compound 44, 2-(1H-Benzoimidazol-2-ylsulfanyl)-1-(4-methyl-piperidin-1-yl)-ethanone], the negative-log EC50 (pEC50) was less than 4.60.

Regarding `CCn1c(SCC(=O)N2CCC(C(N)=O)(N3CCCCC3)CC2)nnc1-c1ccccc1` [Compound 69, 1′-[2-(4-Ethyl-5-phenyl-4H-[1,2,4]triazol-3-ylsulfanyl)-acetyl]-[1,4′]bipiperidinyl-4′-carboxylic acid amide], the pEC50 is less than 4.60.

Regarding `O=C(Nc1ccc2nc(SCC(=O)N3CCOCC3)sc2c1)c1ccccc1` [Compound 21, N-[2-(2-Morpholin-4-yl-2-oxo-ethylsulfanyl)-benzothiazol-6-yl]-benzamide], the pEC50 was less than 4.60.

As for `NC(=O)C1CCN(C(=O)CSc2nc3ccccc3s2)CC1` [Compound 66, 1-[2-(Benzothiazol-2-ylsulfanyl)-acetyl]-piperidine-4-carboxylic acid amide], the negative logarithm of the EC50 (pEC50) is less than 4.60.

Staying with this test, now noted: Dengue virus; Dengue-2 strain New Guinea C, Vero cells, MOI 0.1, harvested 48 hours post infection, viral yield; read-out: Activity (anti-dengue 2 viral activity, EC50).
As to `Cc1ccc(-c2nnc(N3CCN(C(=O)CSc4nc5ccccc5o4)CC3)c3ccccc23)cc1` [Compound 78, 2-(Benzooxazol-2-ylsulfanyl)-1-[4-(4-p-tolyl-phthalazin-1-yl)-piperazin-1-yl]-ethanone], the pEC50 was less than 4.60.

`CCOc1ccc2nc(SCC(=O)N3CCN(c4nc5ccccc5s4)CC3)sc2c1` [Compound 39, 1-(4-Benzothiazol-2-yl-piperazin-1-yl)-2-(6-ethoxy-benzothiazol-2-ylsulfanyl)-ethanone]: the pEC50 was less than 4.60.

As to `O=C(CSc1nc2ccc([N+](=O)[O-])cc2s1)N1CCN(c2cccc(Cl)c2)CC1` [Compound 73, 1-[4-(3-Chloro-phenyl)-piperazin-1-yl]-2-(6-nitro-benzothiazol-2-ylsulfanyl)-ethanone], the pEC50 was less than 4.60.

Consider `O=C(CSc1nc2ccc(/N=C/c3ccc(I)cc3)cc2s1)N1CCOCC1` [Compound 25, 2-(6-{[1-(4-Iodo-phenyl)-meth-(E)-ylidene]-amino}-benzothiazol-2-ylsulfanyl)-1-morpholin-4-yl-ethanone], for which the pEC50 is less than 4.60.

`Cc1cccc(C)c1NC(=O)Cn1c(SCC(N)=O)nc2ccccc21` [Compound 79, 2-{1-[(2,6-Dimethyl-phenylcarbamoyl)-methyl]-1H-benzoimidazol-2-ylsulfanyl}-acetamide]: the pEC50 is less than 4.60.

As for `O=C(CCc1ccccc1)Nc1ccc2nc(SCC(=O)N3CCOCC3)sc2c1` [Compound 1, N-[2-(2-Morpholin-4-yl-2-oxo-ethylsulfanyl)-benzothiazol-6-yl]-3-phenyl-propionamide], the pEC50 is greater than 6.00.

In the case of `CCN(CC)C(=O)CSc1nc2ccc(N3C(=O)c4ccccc4C3=O)cc2s1` [Compound 30, 2-[6-(1,3-Dioxo-1,3-dihydro-isoindol-2-yl)-benzothiazol-2-ylsulfanyl]-N,N-diethyl-acetamide], the pEC50 was less than 4.60.
